{"source": "patent US6642379B1", "about": "“Benzamide derivatives, insecticides for agricultural and horticultural use and usage thereof” (Nihon Nohyaku Co., Ltd., priority 1999, dated 2003)", "test_system": "Diamond Back Moth (Plutella xylostella)", "experiment": "Insecticidal effect on diamond back moth (Test Example 1)", "type": "in vivo", "settings": "144 h, Chinese cabbage seedling with eggs immersed about 30 seconds, 25° C., hatched insects counted six days after immersion, read-out: insecticidal effect (mortality) activity ranking", "source_text": "Insecticidal Effect on Diamond Back Moth (Plutella xylostella)\nAdult diamond back moths were released and allowed to oviposit on a Chinese cabbage seedling. Two days after the release, the seedling having the eggs deposited thereon was immersed for about 30 seconds in a liquid chemical prepared by diluting a preparation containing each compound listed in Tables 1 to 4 as an active ingredient to adjust the concentration to 500 ppm. After air-dryness, it was allowed to stand in a room thermostatted at 25° C. Six days after the immersion, the hatched insects were counted. The mortality was calculated according to the following equation and the insecticidal effect was judged according to the criterion shown below. The test was carried out with triplicate groups of 10 insects. [formula]"}
{"molecule": "Cc1cc(OC(F)(F)F)ccc1NC(=O)c1cccc(Cl)c1-c1coc(C(C)(C)C)n1", "note": "[4-1, 2-(2-t-butyloxazol-4-yl)-3-chloro-2′-methyl-4′-trifluoromethoxybenzanilide]", "values": [{"measurement": "mortality at 500 ppm", "value": 100, "unit": "%"}]}
